In patent US7732456B2, “Pyridone derivative” (Banyu Pharmaceutical Co., Ltd., priority 2004, dated 2010):
Like-named read-outs stand apart in the source and are kept apart here.

Columns and labels:
human MCH-1R = biological target: T1, human MCH-1R (Homo sapiens, UniProt Q99705); assay: MCH binding inhibition test; conditions: membranes of CHO-K1 cells expressing human MCH-1R, 50 pM [125I]MCH, 25° C., an hour; read-out: IC50 (50% inhibition concentration to specific [125I]MCH binding)
T1 construct: expressed in transfected cells; host or cells: CHO-K1 (American Type Culture Collection), plasmid vector pEF/myc/cyto (Invitrogen)
Method: The obtained expression vector was transfected to a host cell CHO-K1 (American Type Culture Collection) using Lipofectamine Plus Reagent (Life Technology Inc.) to provide MCH-1R expression cells.
After washing the glass filter with 50 mM Tris buffer (pH7.4) comprising 10 mM magnesium chloride, 2 mM ethylenediamine tetraacetate and 0.04% Tween-20, radiative activity on the glass filter was measured. […] MCH binding was determined.

[1] = Brain/cerebrospinal fluid migration test; type: in vivo; conditions: SD male rats, after 2 hours of oral administration (10 mg/kg); for concentration at 2 h: rat
Excerpt: A test compound was orally or intravenously administered to SD male rats (7 to 10 weeks-age, 200 to 400 g). Under anesthesia with ether for a predetermined period of time, from each of the rats whole blood was collected from its abdominal aorta using a heparin-processed syringe. Thereafter the brain skin was cut open and a 30 G needle for dental use was pierced between the cervical vertebrae and inserted into the subarachnoid cavity. Through the tube connected with the dental 30 G needle, 50-100 μL of the cerebrospinal fluid was collected into a 1-mL syringe, and then the brain was taken out. Each blood sample was centrifuged (4° C., 6,000 rpm,10 minutes) and the resulting plasma was stirred with three-fold the amount thereof of ethanol (including an internal standard substance). The brain sample was added with 2 mL of water and homogenized, a part of which was taken and stirred with three-fold the amount thereof of ethanol (including an internal standard substance). The cerebrospinal fluid was stirred with three-fold the amount thereof of ethanol (including an internal standard substance). Those samples were allowed to stand for 20 minutes at −20° C., and then centrifuged (4° C., 12,000 g, 10 minutes). The supernatant was analyzed through LC/MS/MS, and the concentration levels of the test compound in the plasma, in the brain and in the cerebrospinal fluid were quantified according to a relative calibration curve method.

[2] = Internal kinetics test (plasma concentration after oral or intravenous administration); type: in vivo; conditions: SD male rats fasted overnight
Method: A test compound was orally or intravenously administered to SD male rats (7 to 10 weeks-age, 200 to 400 g) which had fasted overnight, and within a predetermined period of time, about 100 μL of the blood per rat was collected via the tail vein, using a heparinized capillary. The blood was centrifuged (4° C., 6,000 rpm, 10 minutes) to provide plasma. To the plasma tree-fold the amount thereof of ethanol (including an internal standard substance) was added and stored, followed by standing at −20° C. for 20 minutes and then centrifuge (4° C., 10,000 rpm, 10 minutes). The supernatant was analyzed through LC/MS/MS, and the plasma concentration of the test compound was quantified according to a relative calibration curve method.

T1 sequence (Q99705 whole entry): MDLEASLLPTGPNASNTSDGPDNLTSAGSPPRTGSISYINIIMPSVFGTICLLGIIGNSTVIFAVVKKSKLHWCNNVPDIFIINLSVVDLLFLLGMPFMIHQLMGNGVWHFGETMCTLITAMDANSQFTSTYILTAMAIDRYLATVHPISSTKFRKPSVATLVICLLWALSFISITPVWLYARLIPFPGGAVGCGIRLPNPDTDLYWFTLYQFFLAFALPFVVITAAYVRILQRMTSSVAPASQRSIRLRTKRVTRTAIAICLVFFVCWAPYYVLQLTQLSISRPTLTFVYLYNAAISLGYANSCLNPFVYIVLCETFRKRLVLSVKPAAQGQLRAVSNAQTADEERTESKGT

| IC50 (human MCH-1R) [nM] | SMILES | also measured |
| --- | --- | --- |
| 4.5 | O=c1cc(OCc2ccsc2)ccn1-c1ccc(OCCN2CCCC2)cc1 [Example 68, 1-{4-[2-(1-Pyrrolidinyl)ethoxy]phenyl}-4-(3-thienylmethoxy)-1H-pyridin-2-one] |  |
| 4.2 | O=c1cc(OCc2cccc(Cl)c2)ccn1-c1ccc(OCCN2CCCC2)cc1 [Example 75, 4-(3-Chlorobenzyloxy)-1-{4-[2-(1-pyrrolidinyl)ethoxy]phenyl}-1H-pyridin-2-one] |  |
| 8.6 | CN1CCC[C@H]1COc1ccc(-n2ccc(OCc3ccc(Cl)cn3)cc2=O)cc1 [Example 134, 4-[(5-Chloro-2-pyridinyl)methoxy]-1-(4-{[(2S)-1-methyl-2-pyrrolidinyl]-methoxy}phenyl)-1H-pyridin-2-one] |  |
| 4.4 | O=c1cc(OCc2ccccc2)ccn1-c1ccc(OCCN2CCCCC2)cc1 [Example 2, 4-Benxyloxy-1-{4-[2-(1-piperidinyl)ethoxy]phenyl}-1H-pyridin-2-one] |  |
| 6.8 | CN1CC[C@@H](Oc2ccc(-n3ccc(OCc4ccc(Cl)cn4)cc3=O)cc2)C1 [Example 124, 4-[(5-Chloro-2-pyridinyl)methoxy]-1-(4-{[(3R)-1-methyl-3-pyrrolidinyl]-oxy}phenyl)-1H-pyridin-2-one] |  |
| 4.9 | O=c1cc(OCc2ccc(F)cc2)ccn1-c1ccc(OCCN2CCCCC2)cc1 [Example 28, 4-(4-Fluorobenzyloxy)-1-{4-[2-(1-piperidinyl)ethoxy]phenyl}-1H-pyridin-2-one] |  |
| 5.5 | CC(C)N(C)CCOc1ccc(-n2ccc(OCc3ccc(Cl)cn3)cc2=O)cc1 [Example 115, 4-[(5-Chloro-2-pyridinyl)methoxy]-1-(4-{2-[isopropyl(methyl)amino]ethoxy}-phenyl)-1H-pyridin-2-one] | melting point: 137 to 138 °C |
| 4.7 | O=c1cc(OCc2ccc(Cl)cn2)ccn1-c1ccc(OC[C@H]2CCCN2C2CCC2)cc1 [Example 133] |  |
| 5.6 | O=c1cc(OCc2ccc(F)cc2)ccn1-c1ccc(OCCN2CCCC2)cc1 [Example 29, 4-(4-Fluorobenzyloxy)-1-{4-[2-(1-pyrrolidinyl)ethoxy]phenyl}-1H-pyridin-2-one] | half-value period in blood [2]: 3.9 h; bioavailability ([2]; rat, plasma, oral): 79% |
| 5.4 | CCN(C)CCOc1ccc(-n2ccc(OCc3ccc(Cl)cn3)cc2=O)cc1 [Example 114, 4-[(5-Chloro-2-pyridinyl)methoxy]-1-(4-{2-[ethyl(methyl)amino]ethoxy}-phenyl)-1H-pyridin-2-one] |  |
| 7 | COc1ccc(COc2ccn(-c3ccc(OCCN4CCCC4)cc3)c(=O)c2)cc1 [Example 73, 4-(4-Methoxybenzyloxy)-1-{4-[2-(1-pyrrolidinyl)ethoxy]phenyl}-1H-pyridin-2-one] |  |

The remaining lines, values behind:

| SMILES | IC50 (human MCH-1R) [nM] | also measured |
| --- | --- | --- |
| O=c1cc(CCc2ccccc2)ccn1-c1ccc(OCCN2CCCC2)cc1 [Example 53, 4-(2-Phenylethyl)-1-{4-[2-(1-pyrrolidinyl)ethoxy]phenyl}-1H-pyridin-2-one] | 4.4 |  |
| O=c1cc(OCc2ccc(F)cc2)ccn1-c1ccc(OCCN2C3CCC2CC3)cc1 [Example 90, 1-{4-[2-(7-Azabicyclo[2.2.1]hept-7-yl)ethoxy]phenyl}-4-(4-fluorobenzyloxy)-1H-pyridin-2-one] | 2.7 |  |
| CCN1CC[C@@H](Oc2ccc(-n3ccc(OCc4ccc(Cl)cn4)cc3=O)cc2)C1 [Example 123, 4-[(5-Chloro-2-pyridinyl)methoxy]-1-(4-{[(3R)-1-ethyl-3-pyrrolidinyl]-oxy}phenyl)-1H-pyridin-2-one] |  | melting point: 145 to 146 °C |
| O=c1cc(OCc2ccccc2)ccn1-c1ccc(OCCN2CCCC2)cc1 [Example 12, 4-Benzyloxy-1-{4-[2-(1-pyrrolidinyl)ethoxy]phenyl}-1H-pyridin-2-one] |  | melting point: 109 to 111 °C |
| CN(CCOc1ccc(-n2ccc(OCc3ccccc3)cc2=O)cc1)Cc1ccccc1 [Example 5, 4-Benzyloxy-1-(4-{2-[benzyl(methyl)amino]ethoxy}phenyl)-1H-pyridin-2-one] | 3.8 |  |
| CCN(CC)CCOc1ccc(-n2ccc(OCc3ccc(F)cc3)nc2=O)cc1 [Example 81] | 7.8 |  |
| O=c1cc(OCc2ccccc2)ccn1-c1ccc(O[C@@H]2CCN(C3CCCC3)C2)cc1 [Example 18, 4-Benzyloxy-1-(4-{[(3R)-1-cyclopentyl-3-pyrrolidinyl]oxy}-phenyl)-1H-pyridin-2-one] | 4.3 |  |
| O=c1cc(/C=C/c2ccc(F)cc2)ccn1-c1ccc(OCCN2CCCC2)cc1 [Example 45, 4-[(E)-2-(4-Fluorophenyl)vinyl]-1-{4-[2-(1-pyrrolidinyl)ethoxy]phenyl}-1H-pyridin-2-one] | 1.5 |  |
| CCN(CC)CCOc1ccc(-n2ccc(OCc3ccc(Cl)cn3)cc2=O)cc1 [Example 101] | 5.4 | melting point: 112 to 115 °C |
| CC(C)N1CC[C@@H](Oc2ccc(-n3ccc(OCc4ccccc4)cc3=O)cc2)C1 [Example 19, 4-Benzyloxy-1-(4-{[(3R)-1-isopropyl-3-pyrrolidinyl]oxy}phenyl)-1H-pyridin-2-one] | 5.1 |  |
| O=c1cc(OCc2ccc(F)cc2)ccn1-c1ccc(O[C@@H]2C[C@H]3CCCN3C2)cc1 [Example 92, 4-(4-Fluorobenzyloxy)-1-{4-[(2R,7aR)-hexahydro-1H-pyrrolidin-2-yloxy]phenyl}-1H-pyridin-2-one] | 8.8 |  |
| CC(C)N1CC[C@@H](Oc2ccc(-n3ccc(OCc4ccc(Cl)cn4)cc3=O)cc2)C1 [Example 122, 4-[(5-Chloro-2-pyridinyl)methoxy]-1-(4-{[(3R)-1-isopropyl-3-pyrrolidinyl]-oxy}phenyl)-1H-pyridin-2-one] |  | melting point: 154 to 155 °C |
| O=C1CCCN1CCOc1ccc(-n2ccc(OCc3ccc(F)cc3)cc2=O)cc1 [Example 95, 4-(4-Fluorobenzyloxy)-1-{4-[2-(2-oxo-1-pyrrolidinyl)ethoxy]phenyl}-1H-pyridin-2-one] |  | melting point: 148 to 149 °C |
| C[C@@H]1CC[C@@H](C)N1CCOc1ccc(-n2ccc(OCc3ccc(F)cc3)cc2=O)cc1 (relative stereo) [Example 32, 4-(4-Fluorobenzyloxy)-1-{4-[2-(trans-2,5-dimethyl-1-pyrrolidinyl)ethoxy]-phenyl}-1H-pyridin-2-one] | 3.5 |  |
| O=c1cc(OCc2ccc(Cl)cn2)ccn1-c1ccc(OCCN2CCCC2)cc1 [Example 40, 4-[(5-Chloro-2-pyridinyl)methoxy]-1-{4-[2-(1-pyrrolidinyl)ethoxy]phenyl}-1H-pyridin-2-one] |  | melting point: 168 to 170 °C |
| O=c1cc(OCc2ccccc2)ccn1-c1ccc(OCCN2CCCC2)c(F)c1 [Example 23, 4-Benzyloxy-1-{3-fluoro-4-[2-(1-pyrrolidinyl)ethoxy]phenyl}-1H-pyridin-2-one] | 5.2 |  |
| O=c1cc(OCc2ccc(F)cc2)ccn1-c1ccc(OCCN2C3CCCC2CC3)cc1 [Example 91, 1-{4-[2-(8-Azabicylo[3.2.1]oct-8yl)ethoxy]phenyl}-4-(4-fluorobenzyloxy)-1H-pyridin-2-one] | 3.5 |  |
| CN(C)CCOc1ccc(-n2ccc(OCc3ccccc3)cc2=O)cc1 [Example 1, 4-Benzyloxy-1-{4-[2-(dimethylamino)ethoxy]phenyl}-1H-pyridin-2-one] | 9.5 | brain concentration [1]: 2.33 nmol/g; concentration at 2 h ([1]; cerebrospinal fluid, read-out: cerebrospinal fluid concentration): 46 nM; concentration at 2 h ([1]; plasma, read-out: plasma concentration): 250 nM |
| Cc1cc(-n2ccc(OCc3ccccc3)cc2=O)ccc1OCCN1CCCCC1 [Example 21] | 2.9 |  |
| CCN(CC)CCOc1ccc(-n2ccc(OCc3ccc(F)cc3)cc2=O)cc1 [Example 30, 1-{4-[2-(Diethylamino)ethoxy]phenyl}-4-(4-fluorobenzyloxy)-1H-pyridin-2-one] | 4.8 |  |
| CCCN(C)CCOc1ccc(-n2ccc(OCc3ccc(Cl)cn3)cc2=O)cc1 [Example 116, 4-[(5-Chloro-2-pyridinyl)methoxy]-1-(4-{2-[methyl(propyl)amino]ethoxy}-phenyl)-1H-pyridin-2-one] |  | melting point: 119 to 123 °C |
| O=c1cc(OCc2ccccc2)ccn1-c1ccc(OCCN2C3CCC2CC3)cc1 [Example 86, 1-{4-[2-(7-Azabicyclo[2.2.1]hept-7-yl)ethoxy]phenyl}-4-benzyloxy-1H-pyridin-2-one] | 1.9 |  |
